According to article PMC7524204 (Clinical cancer research : an official journal of the …, 2016):

Key:
[1] = for Histological evidence of toxicity: GI, affected/total (fraction) / Histological evidence of toxicity: Heart, affected/total (fraction) / Histological evidence of toxicity: Liver, Glycogen, affected/total (fraction) / Histological evidence of toxicity: Liver, Vaculation, affected/total (fraction) / Histological evidence of toxicity: Pancreas, affected/total (fraction): C57BL6/J; for Histological evidence of toxicity: GI, affected/total (fraction) / Histological evidence of toxicity: Heart, affected/total (fraction) / Histological evidence of toxicity: Liver, Glycogen, affected/total (fraction) / Histological evidence of toxicity: Liver, Vaculation, affected/total (fraction) / Histological evidence of toxicity: Pancreas, affected/total (fraction) / Lethality or lethargy: 7 days; for Lethality or lethargy: super-therapeutic doses
8505C cells [2] = experiment: Mouse orthotopic xenograft model of ATC, survival; details: for Median Survival: Nu/Nu mice, thyroid orthotopic 8505C, control 22 days; for Hazard ratio: relative Control (untreated) mice, orthotopic 8505C
8505C = experiment: Flow cytometric sub-G1 programmed cell death; type: cell-based, human; details: short-term treatment, S10, Q20, S10Q20
8505C cells [3] = experiment: CellTiter-Glo dose-response in 8505C cells after siRNA knockdown; type: cell-based, human; details: for IC50: Homo sapiens, 72 h
THJ-21T = experiment: 72-hr survival dose-response of ATC cell line THJ-21T; type: cell-based; details: Homo sapiens
THJ-16T = experiment: 72-hr survival dose-response of ATC cell line THJ-16T
THJ-29T = experiment: 72-hr survival dose-response of ATC cell line THJ-29T; type: cell-based; details: Homo sapiens
NFκB-p65 (RelA) = experiment: Western blot of NFκB-p65/RelA expression; type: cell-based, human; details: 8505C and THJ-16T cells, S 10 µM, Q 20 µM

| Compound | Histological evidence of toxicity: GI, affected/total (fraction) ([1]; mouse, in vivo) | Histological evidence of toxicity: Heart, affected/total (fraction) ([1]; mouse, in vivo) | Histological evidence of toxicity: Liver, Glycogen, affected/total (fraction) ([1]; mouse, in vivo) | Histological evidence of toxicity: Liver, Vaculation, affected/total (fraction) ([1]; mouse, in vivo) | Histological evidence of toxicity: Pancreas, affected/total (fraction) ([1]; mouse, in vivo) | Lethality or lethargy [1] | Median Survival (8505C cells [2]) [days] | Hazard ratio (8505C cells [2]) | sub-G1 DNA (8505C) | IC50 (THJ-21T) [µM] | IC50 (THJ-29T) [µM] | also measured |
| --- | --- | --- | --- | --- | --- | --- | --- | --- | --- | --- | --- | --- |
| COc1cccc2c1C(=O)c1c(O)c3c(c(O)c1C2=O)C[C@@](O)(C(=O)CO)C[C@@H]3O[C@H]1C[C@H](N)[C@H](O)[C@H](C)O1 [Doxorubicin] | 4/5 (0.80) | 0/5 (0) | 3/5 (0.60) | 4/5 (0.80) | 4/5 (0.80) | No lethality or lethargy | 31 | 0.709 | – | – | – | Level of platelets in blood ([1]; mouse, in vivo): increased level; Number of RBC's and hemoglobin (Hgb) ([1]; mouse, in vivo): reduction |
| CNC(=O)c1cc(Oc2ccc(NC(=O)Nc3ccc(Cl)c(C(F)(F)F)c3)cc2)ccn1 [Sorafenib] | 0/5 (0) | 0/5 (0) | 4/5 (0.80) | 4/5 (0.80) | 5/5 (1.00) | No lethality or lethargy | 26 | 0.846 | Increased | 12.4 | 4.5 | Increased sensitization by p65/RelA siRNA compared to Scr siRNA (8505C cells [3]): approximately 2 fold; IC50 (8505C cells [3]; scrambled (Scr) siRNA): 10.5 µM; IC50 (8505C cells [3]; siRNA targeting p65/RelA): 5.15 µM; IC50 (THJ-16T; THJ-16T, 72-hr survival): 31 µM |
| CCN(CC)CCCC(C)Nc1c2ccc(Cl)cc2nc2ccc(OC)cc12 (centres unmarked) [Quinacrine] | 0/4 (0) | 1/5 (0.20) | 3/4 (0.75) | 3/4 (0.75) | 0/4 (0) | – | 32 | – | Increased | 15.4 | 12.7 | Impact of p65/RelA siRNA on survival dose-response relationship (8505C cells [3]): did not have any significant impact; Effect of Mcl-1 knockdown on IC50 (8505C cells [3]; Mcl-1 siRNA): did not affect; IC50 (THJ-16T; Homo sapiens, 72 h): 18.4 µM; Expression of NFκB-p65 (RelA) (NFκB-p65 (RelA)): inhibited |
